# In US9695155B2, “Herbicidal substituted pyrimidinyloxy benzene compounds” (E. I. DU PONT DE NEMOURS AND COMPANY, priority 2013, dated 2017):
# Key:
# [1] = tested on: johnsongrass; experiment: Test C preemergence; format: in vivo, Sorghum halepense; conditions: for Johnsongrass plant response rating: preemergence
# From the text: (§1) Seeds of plant species selected from blackgrass (Alopecurus myosuroides), Italian ryegrass (Lolium multiflorum), wheat, winter (winter wheat, Triticum aestivum), galium (catchweed bedstraw, Galium aparine), corn (Zea mays), large (Lg) crabgrass (Digitaria sanguinalis), giant foxtail (Setaria faberii), johnsongrass (Sorghum halepense), lambsquarters (Chenopodium album), morningglory (Ipomoea coccinea), yellow nutsedge (Cyperus esculentus), pigweed (Amaranthus retroflexus), ragweed (common ragweed, Ambrosia elatior), soybean (Glycine max), barnyardgrass (Echinochloa crus-galli), oilseed rape (Brassica napus), waterhemp (common waterhemp, Amaranthus rudis), kochia (Kochia scoparia), wild oat (Avena fatua), surinam grass (Brachiaria decumbens), foxtail, green (green foxtail, Setaria viridis), goosegrass (Eleusine indica), bromegrass, downy (downy bromegrass, Bromus tectorum), nightshade (eastern black nightshade, Solanum ptycanthum), cocklebur (common cocklebur, Xanthium strumarium), cupgrass, woolly (woolly cupgrass, Eriochloa villosa), bermudagrass (Cynodon dactylon), sunflower, (common oilseed sunflower, Helianthus annuus), Russian thistle (Salsola kali), and velvetleaf (Abutilon theophrasti) were planted into a blend of loam soil and sand and treated preemergence with test chemicals formulated in a non-phytotoxic solvent mixture which included a surfactant.
# (§2) At the same time, plants selected from these crop and weed species and also barley, winter (winter barley, Hordeum vulgare), windgrass (Apera spica-venti), chickweed (common chickweed, Stellaria media), deadnettle (henbit deadnettle, Lamium amplexicaule), and canarygrass (littleseed canarygrass, Phalaris minor) were planted in pots containing Redi-Earth® planting medium (Scotts Company, 14111 Scottslawn Road, Marysville, Ohio 43041) comprising spaghnum peat moss, vermiculite, wetting agent and starter nutrients and treated with postemergence applications of test chemicals formulated in the same manner. Plants ranged in height from 2 to 18 cm (1- to 4-leaf stage) for postemergence treatments. Treated plants and controls were maintained in a greenhouse for 13 to 15 days, after which time all species were compared to controls and visually evaluated. Plant response ratings, summarized in Table C, are based on a scale of 0 to 100 where 0 is no effect and 100 is complete control. A dash (-) response means no test result.
# [2] = tested on: barnyardgrass; experiment: Test A postemergence; format: in vivo, Echinochloa crus-galli
# Outline: (§3)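 Visual injury scored 0–100 (100 = complete control) against untreated controls about 10 days after treatment in a greenhouse. Test chemicals, formulated with surfactant in non-phytotoxic solvent, were sprayed on soil preemergence or on 2-10 cm, one- to two-leaf plants postemergence.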
# [3] = tested on: rice; experiment: Test B flooded paddy test; format: in vivo, Oryza sativa; conditions: Flood, 250 g ai/ha, 0 to 100 scale where 0 is no effect and 100 is complete control
# Outline: (§4)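 Compound added straight to paddy water, with pots kept flooded 3 cm above soil, on plants grown to the 2-leaf stage. Visual scoring 0-100 (100 = complete control) against untreated controls after 13 to 15 greenhouse days.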
# [4] = tested on: sedge, umbrella; experiment: Test B flooded paddy test; format: in vivo, Cyperus difformis; conditions: Flood, 250 g ai/ha, 0 to 100 scale where 0 is no effect and 100 is complete control
# Outline: as §4
# [5] = tested on: corn; experiment: Test A postemergence; format: in vivo, Zea mays
# Outline: as §3
# [6] = tested on: barnyardgrass; experiment: Test A preemergence; format: in vivo, Echinochloa crus-galli
# Outline: as §3
# [7] = tested on: velvetleaf; experiment: Test C preemergence; format: in vivo, Abutilon theophrasti; conditions: for Velvetleaf plant response rating: preemergence
# From the text: as §1, §2
# [8] = tested on: large (Lg) crabgrass; experiment: Test C preemergence; format: in vivo, Digitaria sanguinalis; conditions: for Crabgrass, Large plant response rating: preemergence; for Plant response rating, Crabgrass, Large: Preemergence, scale 0 to 100, 0 no effect, 100 complete control
# From the text: as §1, §2
# [9] = tested on: galium; experiment: Test C preemergence; format: in vivo, Galium aparine; conditions: for Galium plant response rating: preemergence
# From the text: as §1, §2
# [10] = 16 g ai/ha, scale 0 to 100 (0 no effect, 100 complete control)
# [11] = 125 g ai/ha, scale 0 (no effect) to 100 (complete control)
# [12] = Preemergence, 62 g ai/ha, scale 0 to 100, 0 no effect, 100 complete control
# [13] = 31 g ai/ha, 0 to 100 scale, 0 no effect, 100 complete control
# [14] = 125 g ai/ha, 0 to 100 scale, 0 no effect, 100 complete control
# [15] = 31 g ai/ha, 0 to 100 scale where 0 is no effect and 100 is complete control, visual, approximately 10 days
# [16] = 125 g ai/ha, 0 to 100 scale where 0 is no effect and 100 is complete control
# [17] = 500 g ai/ha, 0 to 100 scale, 0 no effect, 100 complete control
# [18] = 62 g ai/ha, scale 0 (no effect) to 100 (complete control)
smiles,measurement,setting,value
Fc1cccc(Oc2ncc(Cl)cn2)c1-n1cc(OCC(F)(F)F)cn1 [Compound 270],Johnsongrass plant response rating,[1]; [10],0
same,Johnsongrass plant response rating,[1]; [11],95
same,"Plant response rating, Johnsongrass",[1]; [12],40
same,"Plant response rating, Barnyardgrass",[2]; [13],10
same,"Plant response rating, Barnyardgrass",[2]; [14],80
same,"Plant response rating, Rice",[3],0
same,"Plant response rating, Sedge, Umbrella",[4],90
same,"Plant response rating, Corn",[5]; [13],20
same,"Plant response rating, Corn",[5]; [14],50
same,"Plant response rating, Barnyardgrass",[6]; [15],20
same,"Barnyardgrass plant response rating (0 to 100 scale, 0 is no effect, 100 is complete control)",[6]; 125 g ai/ha,100
same,Velvetleaf plant response rating,[7]; [10],0
same,Velvetleaf plant response rating,[7]; [11],100
same,"Plant response rating, Velvetleaf",[7]; [12],98
same,"Crabgrass, Large plant response rating",[8]; [10],50
same,"Crabgrass, Large plant response rating",[8]; [11],100
same,"Plant response rating, Crabgrass, Large",[8]; 62 g ai/ha,100
same,Galium plant response rating,[9]; [10],70
same,Galium plant response rating,[9]; [11],100
same,"Plant response rating, Galium",[9]; [12],95
Clc1cnc(Oc2ccccc2-n2cc(Cl)cn2)nc1 [Compound 3],"Plant response rating, Barnyardgrass",[2]; [16],10
same,"Plant response rating, Barnyardgrass",[2]; [17],90
same,"Plant response rating, Rice",[3],0
same,"Plant response rating, Sedge, Umbrella",[4],75
same,"Plant response rating, Corn",[5]; [16],0
same,"Plant response rating, Corn",[5]; [17],40
same,Barnyardgrass plant response rating,[6]; [16],60
same,Barnyardgrass plant response rating,"[6]; 500 g ai/ha, 0 to 100 scale, 0 no effect, 100 complete control, approx. 10 days",100
"FC(F)(F)c1ccn(-c2ccccc2Oc2ncc(Cl)cn2)n1 [Compound 2, 5-chloro-2-[2-[3-(trifluoromethyl)-1H-pyrazol-1-yl]phenoxy]pyrimidine]",pest or weed control at 125 g/ha,"[2]; Echinochloa crus-galli, post-emergence, 240 h, 125 g ai/ha, 0 to 100 scale where 0 is no effect and 100 is complete control, read-out: Plant response rating, Barnyardgrass",30%
same,pest or weed control at 500 g/ha,"[2]; Echinochloa crus-galli, post-emergence, 240 h, 500 g ai/ha, 0 to 100 scale, 0 no effect, 100 complete control, read-out: Plant response rating Barnyardgrass",70%
same,plant injury at 250 g/ha,"[3]; Oryza sativa, read-out: Plant response rating, Rice",0%
same,pest or weed control at 250 g/ha,"[4]; Cyperus difformis, read-out: Plant response rating, Sedge, Umbrella",0%
same,"Corn plant response rating (crop injury, 0 = no effect, 100 = complete kill) at 125 g/ha","[5]; Zea mays, post-emergence, 240 h, 125 g ai/ha, 0 to 100 scale where 0 is no effect and 100 is complete control",0%
same,plant injury at 500 g/ha,"[5]; Zea mays, post-emergence, 240 h, 500 g ai/ha, 0 to 100 scale, 0 no effect, 100 complete control, read-out: Plant response rating Corn",40%
same,pest or weed control at 125 g/ha,"[6]; Echinochloa crus-galli, pre-emergence, 240 h, 125 g ai/ha, 0 to 100 scale where 0 is no effect and 100 is complete control, read-out: Barnyardgrass plant response rating",30%
same,pest or weed control at 500 g/ha,"[6]; Echinochloa crus-galli, pre-emergence, 240 h, 500 g ai/ha, 0 to 100 scale, 0 no effect, 100 complete control, approx. 10 days, read-out: Barnyardgrass plant response rating",90%
N#Cc1cnn(-c2c(CF)cccc2Oc2ncc(F)cn2)c1 [Compound 151],Johnsongrass plant response rating,[1]; [10],0
same,Johnsongrass plant response rating,[1]; [18],50
same,Johnsongrass plant response rating,[1]; [11],65
same,"Plant response rating, Barnyardgrass",[2]; [13],0
same,Barnyardgrass plant response rating,[2]; [16],60
same,"Plant response rating, Rice",[3],20
same,"Plant response rating, Sedge, Umbrella",[4],0
same,"Plant response rating, Corn",[5]; [13],0
same,Corn plant response rating,[5]; [16],40
same,"Plant response rating, Barnyardgrass",[6]; [15],20
same,"Plant response rating, Barnyardgrass",[6]; [16],60
same,Velvetleaf plant response rating,[7]; [10],85
same,Velvetleaf plant response rating,[7]; [18],100
same,Velvetleaf plant response rating,[7]; [11],100
same,"Crabgrass, Large plant response rating",[8]; [10],5
same,"Crabgrass, Large plant response rating",[8]; [18],98
same,"Crabgrass, Large plant response rating",[8]; [11],100
same,"Plant response rating, Crabgrass, Large",[8]; 31 g ai/ha,85
